Legend:
Assay in all cases: relative viability (nuclei count vs DMSO), 5 days (fraction); higher = more cells survive
NCI-H322M = system: NCI-H322M
Method in brief: (§1)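 Lung cancer cell lines, seeded in 1536-well plates, were treated the following day by pin tool with a single drug or with five library-drug doses (not always all listed) in √10 steps on top of a fixed anchor-drug dose. Cells were fixed and nuclei stained in one step after 5 days, and nuclei were counted. Relative viability is the nuclei count for treated wells divided by that for vehicle wells, reported as medians of duplicate plates.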

NCI-H520 = system: NCI-H520
Method in brief: as §1

NCI-H1755 = system: NCI-H1755
Method in brief: as §1

SK-MES-1 = system: SK-MES-1
Method in brief: as §1

NCI-H1651 = system: NCI-H1651
Method in brief: as §1

NCI-H2347 = system: NCI-H2347
Method in brief: as §1

LCLC-103H = system: LCLC-103H
Method in brief: as §1

NCI-H1915 = system: NCI-H1915
Method in brief: as §1

NCI-H727 = system: NCI-H727
Method in brief: as §1

SW 900 = system: SW 900
Method in brief: as §1

NCI-H522 = system: NCI-H522
Method in brief: as §1

NCI-H3122 = system: NCI-H3122
Method in brief: as §1

RERF-LC-KJ = system: RERF-LC-KJ
Method in brief: as §1

NCI-H441 = system: NCI-H441
Method in brief: as §1

NCI-H460 = system: NCI-H460
Method in brief: as §1

NCI-H661 = system: NCI-H661
Method in brief: as §1

NCI-H1355 = system: NCI-H1355
Method in brief: as §1

NCI-H596 = system: NCI-H596
Method in brief: as §1

PC-14 = system: PC-14
Method in brief: as §1

LXF-289 = system: LXF-289
Method in brief: as §1

CC(=O)O[C@@]12CO[C@@H]1C[C@H](O)[C@@]1(C)C(=O)[C@H](O)C3=C(C)[C@@H](OC(=O)[C@H](O)[C@@H](NC(=O)OC(C)(C)C)c4ccccc4)C[C@@](O)([C@@H](OC(=O)c4ccccc4)[C@H]21)C3(C)C [Docetaxel] + O=C(CCCCCCC(=O)Nc1ccccc1)NO [Vorinostat] (partner 1 µM)
relative viability (NCI-H322M; first compound 0.0002 µM): 0.801 | relative viability (NCI-H322M; first compound 0.000632 µM): 0.843 | relative viability (NCI-H322M; first compound 0.002 µM): 0.906 | relative viability (NCI-H322M; first compound 0.006325 µM): 0.711 | relative viability (NCI-H322M; first compound 0.02 µM): 0.481 | relative viability (NCI-H520; first compound 0.0002 µM): 0.714 | relative viability (NCI-H520; first compound 0.000632 µM): 0.463 | relative viability (NCI-H520; first compound 0.002 µM): 0.281 | relative viability (NCI-H520; first compound 0.006325 µM): 0.187 | relative viability (NCI-H520; first compound 0.02 µM): 0.158 | relative viability (NCI-H1755; first compound 0.0002 µM): 0.791 | relative viability (NCI-H1755; first compound 0.000632 µM): 0.728 | relative viability (NCI-H1755; first compound 0.002 µM): 0.433 | relative viability (NCI-H1755; first compound 0.006325 µM): 0.479 | relative viability (NCI-H1755; first compound 0.02 µM): 0.373 | relative viability (SK-MES-1; first compound 0.0002 µM): 1.15 | relative viability (SK-MES-1; first compound 0.000632 µM): 0.925 | relative viability (SK-MES-1; first compound 0.002 µM): 0.695 | relative viability (SK-MES-1; first compound 0.006325 µM): 0.267 | relative viability (SK-MES-1; first compound 0.02 µM): 0.212 | relative viability (NCI-H1651; first compound 0.0002 µM): 0.41 | relative viability (NCI-H1651; first compound 0.000632 µM): 0.582 | relative viability (NCI-H1651; first compound 0.002 µM): 0.463 | relative viability (NCI-H1651; first compound 0.006325 µM): 0.159 | relative viability (NCI-H2347; first compound 0.0002 µM): 0.726 | relative viability (NCI-H2347; first compound 0.000632 µM): 0.554 | relative viability (NCI-H2347; first compound 0.002 µM): 0.418 | relative viability (NCI-H2347; first compound 0.006325 µM): 0.434 | relative viability (NCI-H2347; first compound 0.02 µM): 0.33 | relative viability (LCLC-103H; first compound 0.0002 µM): 0.703 | relative viability (LCLC-103H; first compound 0.000632 µM): 0.695 | relative viability (LCLC-103H; first compound 0.002 µM): 0.513 | relative viability (LCLC-103H; first compound 0.006325 µM): 0.604 | relative viability (LCLC-103H; first compound 0.02 µM): 0.47 | relative viability (NCI-H1915; first compound 0.0002 µM): 0.531 | relative viability (NCI-H1915; first compound 0.000632 µM): 0.258 | relative viability (NCI-H1915; first compound 0.002 µM): 0.316 | relative viability (NCI-H1915; first compound 0.006325 µM): 0.174 | relative viability (NCI-H1915; first compound 0.02 µM): 0.0863 | relative viability (NCI-H727; first compound 0.0002 µM): 1.08 | relative viability (NCI-H727; first compound 0.000632 µM): 1.13 | relative viability (NCI-H727; first compound 0.002 µM): 1.2 | relative viability (NCI-H727; first compound 0.006325 µM): 0.748 | relative viability (NCI-H727; first compound 0.02 µM): 0.67 | relative viability (SW 900; first compound 0.0002 µM): 0.523 | relative viability (SW 900; first compound 0.000632 µM): 0.284 | relative viability (SW 900; first compound 0.002 µM): 0.277 | relative viability (SW 900; first compound 0.006325 µM): 0.203 | relative viability (SW 900; first compound 0.02 µM): 0.235 | relative viability (NCI-H522; first compound 0.0002 µM): 0.852 | relative viability (NCI-H522; first compound 0.000632 µM): 0.899 | relative viability (NCI-H522; first compound 0.002 µM): 0.713 | relative viability (NCI-H522; first compound 0.006325 µM): 0.516 | relative viability (NCI-H522; first compound 0.02 µM): 0.344 | relative viability (NCI-H3122; first compound 0.0002 µM): 0.909 | relative viability (NCI-H3122; first compound 0.000632 µM): 0.95 | relative viability (NCI-H3122; first compound 0.002 µM): 0.487 | relative viability (NCI-H3122; first compound 0.006325 µM): 0.22 | relative viability (NCI-H3122; first compound 0.02 µM): 0.126 | relative viability (RERF-LC-KJ; first compound 0.0002 µM): 0.591 | relative viability (RERF-LC-KJ; first compound 0.000632 µM): 0.628 | relative viability (RERF-LC-KJ; first compound 0.002 µM): 0.368 | relative viability (RERF-LC-KJ; first compound 0.006325 µM): 0.189 | relative viability (RERF-LC-KJ; first compound 0.02 µM): 0.151 | relative viability (NCI-H441; first compound 0.0002 µM): 0.713 | relative viability (NCI-H441; first compound 0.000632 µM): 0.53 | relative viability (NCI-H441; first compound 0.002 µM): 0.223 | relative viability (NCI-H441; first compound 0.006325 µM): 0.219 | relative viability (NCI-H441; first compound 0.02 µM): 0.165 | relative viability (NCI-H460; first compound 0.0002 µM): 0.637 | relative viability (NCI-H460; first compound 0.000632 µM): 0.349 | relative viability (NCI-H460; first compound 0.002 µM): 0.0613 | relative viability (NCI-H460; first compound 0.006325 µM): 0.0388 | relative viability (NCI-H460; first compound 0.02 µM): 0.0166 | relative viability (NCI-H661; first compound 0.0002 µM): 0.777 | relative viability (NCI-H661; first compound 0.000632 µM): 0.856 | relative viability (NCI-H661; first compound 0.002 µM): 0.728 | relative viability (NCI-H661; first compound 0.006325 µM): 0.493 | relative viability (NCI-H661; first compound 0.02 µM): 0.373 | relative viability (NCI-H1355; first compound 0.0002 µM): 0.631 | relative viability (NCI-H1355; first compound 0.000632 µM): 0.626 | relative viability (NCI-H1355; first compound 0.002 µM): 0.382 | relative viability (NCI-H1355; first compound 0.006325 µM): 0.244 | relative viability (NCI-H1355; first compound 0.02 µM): 0.176 | relative viability (NCI-H596; first compound 0.0002 µM): 0.639 | relative viability (NCI-H596; first compound 0.000632 µM): 0.46 | relative viability (NCI-H596; first compound 0.002 µM): 0.393 | relative viability (NCI-H596; first compound 0.006325 µM): 0.307 | relative viability (NCI-H596; first compound 0.02 µM): 0.144 | relative viability (PC-14; first compound 0.0002 µM): 0.725 | relative viability (PC-14; first compound 0.000632 µM): 0.245 | relative viability (PC-14; first compound 0.002 µM): 0.079 | relative viability (PC-14; first compound 0.006325 µM): 0.0579 | relative viability (PC-14; first compound 0.02 µM): 0.0282 | relative viability (LXF-289; first compound 0.0002 µM): 0.797 | relative viability (LXF-289; first compound 0.000632 µM): 0.392 | relative viability (LXF-289; first compound 0.002 µM): 0.168 | relative viability (LXF-289; first compound 0.006325 µM): 0.19 | relative viability (LXF-289; first compound 0.02 µM): 0.118

— the supplement of paper PMC10307832
